Measured values as given in patent publication US20130296311A1, “INHIBITORS OF HCV NS5A” (PRESIDIO PHARMACEUTICALS, INC., priority 2010, published 2013).

These compounds were tested on HCV 1b_Huh-Luc/Neo-ET cell line persistently expressing a bicistronic genotype 1b replicon in Huh 7 cells (assay: HCV replicon assay (luciferase readout, 72 h)). Settings: Hepatitis C virus, Huh-7, 72 h, read-out: Inhibition of HCV.
Format: cell-based, HCV genotype 1b
Protocol: Biological activity of the compounds of the invention was determined using an HCV replicon assay. The HCV 1b_Huh-Luc/Neo-ET cell line persistently expressing a bicistronic genotype 1b replicon in Huh 7 cells was obtained from ReBLikon GMBH. This cell line was used to test compound inhibition using luciferase enzyme activity readout as a measurement of compound inhibition of replicon levels.
On Day 1 (the day after plating), each compound is added in triplicate to the cells. Plates incubated for 72 h prior to running the luciferase assay. Enzyme activity was measured using a Bright-Glo Kit (cat. number E2620) manufactured by Promega Corporation. The following equation was used to generate a percent control value for each compound.
% Control=(Average Compound Value/Average Control)*100
The EC50 value was determined using GraphPad Prism and the following equation:
Y=Bottom+(Top-Bottom)/(1+10̂((LogIC50−X)*HillSlope))
EC50 values of compounds are determined several times in the replicon assay.
Example compounds of the disclosed invention are illustrated in Tables 1-16 attached as appendices. The tables show inhibitory activity of many of the example compounds with respect to HCV 1b. […] The tables further provide mass spectrometry results for the synthesized example compounds.

Structure (SMILES) | EC50 [nM]
COC(=O)N[C@@H](C(=O)N1CCC[C@H]1c1nc2ccc(C#Cc3ccc4nc([C@@H]5CCCN5C(=O)[C@H](NC(=O)OC)c5ccccc5)[nH]c4c3)cc2[nH]1)c1ccccc1 [Compound 851] | < 1

Same assay, conditions: Hepatitis C virus, Huh-7, 72 h, read-out: Inhibition of HCV genotype 1b

Structure (SMILES) | EC50 [nM]
CS(=O)(=O)N[C@@H](C(=O)N1CCC[C@H]1c1ncc(-c2ccc(C#Cc3ccc(-c4cnc([C@@H]5CCCN5C(=O)[C@@H](c5ccccc5)N5CCOCC5)[nH]4)cc3)cc2)[nH]1)c1ccccc1 [Compound 232] | < 1
COC(=O)N[C@H](C(=O)N1CCC[C@H]1c1nc(-c2ccc3cc(C#Cc4[nH]c([C@@H]5CCCN5C(=O)[C@@H](NC(=O)OC)C(C)C)nc4C(F)(F)F)ccc3c2)c[nH]1)C(C)C [Compound 1082] | < 1
COC(=O)N[C@@H](C(=O)N1CCC[C@H]1c1ncc(-c2ccc(C#Cc3ccc(-c4cnc([C@@H]5CCCN5C(=O)[C@H](NC(=O)N5CC[C@H](OC)C5)c5ccccc5)[nH]4)cc3)cc2)[nH]1)c1ccccc1 [Compound 272] | < 1
COC(=O)N[C@H](C(=O)N1C[C@H](F)C[C@H]1c1ncc(-c2ccc(C#Cc3ccc4nc([C@@H]5CCCN5C(=O)[C@@H](NC(=O)OC)C(C)C)[nH]c4c3)cc2)[nH]1)C(C)C [Compound 1040] | < 1
COC(=O)N[C@H](C(=O)N1CCC[C@H]1c1ncc(-c2ccc(C#Cc3ccc(-c4cnc([C@H](C)NC(=O)[C@@H](C(C)C)N(C)C)[nH]4)cc3)cc2)[nH]1)C(C)C [Compound 982] | 10 to 999
COC(=O)N[C@H](C(=O)N1CCCC[C@H]1c1ncc(-c2ccc(C#Cc3ccc4nc([C@@H]5CCCN5C(=O)[C@@H](NC(=O)OC)C(C)C)[nH]c4c3)cc2)[nH]1)C(C)C [Compound 1032] | < 1
O=C(N[C@@H](C(=O)N1CCC[C@H]1c1ncc(-c2ccc(C#Cc3ccc(-c4cnc([C@@H]5CCCN5C(=O)[C@H](NC(=O)N5CCCC5)c5ccccc5)[nH]4)cc3)cc2)[nH]1)c1ccccc1)N1CCCC1 [Compound 249] | < 1
COC(=O)N[C@@H](C(=O)N1CCC[C@H]1c1ncc(-c2ccc(C#Cc3ccc(-c4cnc([C@@H]5CCCN5C(=O)[C@H](NC(=O)N5CC[C@@H](OC)C5)c5ccccc5)[nH]4)cc3)cc2)[nH]1)c1ccccc1 [Compound 271] | < 1
COC(=O)N[C@H](C(=O)N1CSC[C@H]1c1ncc(-c2ccc(C#Cc3ccc4nc([C@@H]5CCCN5C(=O)[C@@H](NC(=O)OC)C(C)C)[nH]c4c3)cc2)[nH]1)C(C)C [Compound 1026] | < 1
CC(=O)N[C@@H](C(=O)N1CCC[C@H]1c1ncc(-c2ccc(C#Cc3ccc(-c4cnc([C@@H]5CCCN5C(=O)[C@H](NC(C)=O)c5ccccc5)[nH]4)cc3)cc2)[nH]1)c1ccccc1 [Compound 158] | < 1
CN1CCN(C(=O)N[C@@H](C(=O)N2CCC[C@H]2c2ncc(-c3ccc(C#Cc4ccc(-c5cnc([C@@H]6CCCN6C(=O)[C@H](NC(=O)C6CC6)c6ccccc6)[nH]5)cc4)cc3)[nH]2)c2ccccc2)CC1 [Compound 238] | < 1
COC(=O)N[C@@H](C(=O)N(C)[C@@H](C)c1ncc(-c2ccc(C#Cc3ccc(-c4cnc([C@@H]5CCCN5C(=O)[C@H](NC(=O)OC)c5ccccc5)[nH]4)cc3)cc2)[nH]1)c1ccccc1 [Compound 274] | < 1
COC(=O)N[C@@H](C(=O)N1CCC[C@H]1c1ncc(-c2ccc(C#Cc3ccc(-c4cnc([C@@H]5CCCN5C(=O)[C@H]5CCCO5)[nH]4)cc3)cc2)[nH]1)c1ccccc1 [Compound 177] | < 1
COC(=O)N[C@@H](C(=O)N1CCC[C@H]1c1ncc(-c2ccc(C#Cc3ccc(-c4cnc([C@@H]5CCCN5C(=O)[C@@H](c5ccccc5)N(C)C)[nH]4)cc3)cc2)[nH]1)c1ccccc1 [Compound 174] | < 1
COC(=O)N[C@H](C(=O)N1CCC[C@H]1c1ncc(-c2ccc(C#Cc3ccc4nc([C@@H]5CCCN5C(=O)[C@@H](NC(=O)OC)C5CC5)[nH]c4c3)cc2)[nH]1)C1CC1 [Compound 1029] | < 1
CC(C)(C)OC(=O)N[C@@H](C(=O)N1CCC[C@H]1C(=O)NCc1ccc(C#Cc2ccc(-c3cnc([C@@H]4CCCN4C(=O)[C@H](NC(=O)OC(C)(C)C)c4ccccc4)[nH]3)cc2)cc1)c1ccccc1 [Compound 189] | < 1
CN(C)C(=O)N[C@@H](C(=O)N1CCC[C@H]1c1ncc(-c2ccc(C#Cc3ccc(-c4cnc([C@@H]5CCCN5C(=O)[C@H](NC(=O)N(C)C)c5ccccc5)[nH]4)cc3)cc2)[nH]1)c1ccccc1 [Compound 161] | < 1
COC(=O)NC1(C(=O)N2CCC[C@H]2c2ncc(-c3ccc(C#Cc4ccc5nc([C@@H]6CCCN6C(=O)C6(NC(=O)OC)CC6)[nH]c5c4)cc3)[nH]2)CC1 [Compound 1043] | 10 to 999
CC(C)(C)OC(=O)N[C@@H](C(=O)N1CCC[C@H]1C(=O)Nc1ccc(C#Cc2cnc([C@@H]3CCCN3C(=O)[C@H](NC(=O)OC(C)(C)C)c3ccccc3)[nH]2)cc1)c1ccccc1 [Compound 115] | < 1
COC(=O)N[C@@H](C)C(=O)N1CCC[C@H]1c1ncc(-c2ccc(C#Cc3ccc4nc([C@@H]5CCCN5C(=O)[C@H](C)NC(=O)OC)[nH]c4c3)cc2)[nH]1 [Compound 1028] | < 1
COC(=O)N[C@H](C(=O)N1CCOC[C@H]1c1ncc(-c2ccc(C#Cc3ccc4nc([C@@H]5CCCN5C(=O)[C@@H](NC(=O)OC)C(C)C)[nH]c4c3)cc2)[nH]1)C(C)C [Compound 1027] | < 1

Same assay, conditions: Hepatitis C virus, Huh-7, read-out: Inhibition of HCV genotype 1b

Structure (SMILES) | EC50 [nM]
CC[C@H](C)[C@H](NC(=O)OC)C(=O)N1CCC[C@H]1c1ncc(-c2ccc3cc(C#Cc4[nH]c([C@@H]5CCCN5C(=O)[C@@H](NC(=O)OC)[C@@H](C)OC)nc4C(F)(F)F)ccc3c2)[nH]1 [Compound 1259] | < 1
COC(=O)N[C@H](C(=O)N1CCN(C(=O)OC)C[C@H]1c1ncc(-c2ccc(C#Cc3ccc4nc([C@@H]5CCCN5C(=O)[C@H](NC(=O)OC5CCOCC5)c5ccccc5)[nH]c4c3)cc2)[nH]1)C(C)C [Compound 1231] | < 1
COC(=O)N[C@H](C(=O)N1CCC[C@H]1c1nc2c([nH]1)-c1ccc(C#Cc3ccc4nc([C@@H]5CCCN5C(=O)[C@H](NC(=O)OC)c5ccccc5)[nH]c4c3)cc1CCC2)C(C)C [Compound 1281] | < 1
COC(=O)N[C@H](C(=O)N1CCC[C@H]1c1ncc(-c2ccc(C#Cc3ccc(-c4cnc([C@@H]5CCCN5C(=O)[C@@H](NC(=O)OC)C(C)C)[nH]4)cc3C(=O)OC)cc2)[nH]1)C(C)C [Compound 1200] | < 1
CC[C@H](NC(=O)OC)C(=O)N1CCC[C@H]1c1nc2ccc(C#Cc3ccc(-c4cnc([C@@H]5CCCN5C(=O)[C@@H](NC(=O)OC)[C@@H](C)OC)[nH]4)cc3)cc2[nH]1 [Compound 1245] | < 1
C=CC[C@H](NC(=O)OC)C(=O)N1CCC[C@H]1c1nc2ccc(C#Cc3ccc4c(c3)CCCc3nc([C@@H]5CCCN5C(=O)[C@@H](NC(=O)OC)C(C)C)[nH]c3-4)cc2[nH]1 [Compound 1283] | < 1
COC(=O)N[C@H](C(=O)N1CCC[C@H]1c1ncc(-c2ccc(C#Cc3ccc(-c4cnc([C@@H]5CCCN5C(=O)[C@@H](NC(=O)OC)C(C)C)[nH]4)cc3C#N)cc2)[nH]1)C(C)C [Compound 1202] | < 1
[2H]C([2H])([2H])C([2H])(C([2H])([2H])[2H])[C@@]([2H])(NC(=O)OC)C(=O)N1CCC[C@H]1c1nc2ccc(C#Cc3ccc4c(ccc5nc([C@@H]6CCCN6C(=O)[C@@H](NC(=O)OC)C(C)C)[nH]c54)c3)cc2[nH]1 [Compound 1278] | < 1
